Among the test systems are CCRF-CEM leukemia; HL-60(TB) leukemia; HOP-92 NSCLC; HS 578T breast; MALME-3M melanoma; NCI-H460 lung; SN12C renal; SR leukemia; SW-620 colon; U251 CNS.
What all share (experiment): NCI-60 cell line screen, 48 h

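1) Cells in 96-well plates. 2) Compound, 48 h, 5 concentrations. 3) Linear interpolation between surrounding doses. 4) Unreached endpoint = highest concentration. TGI denotes the concentration required for complete inhibition of growth.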

As to `CCN(CCO)CCNc1ccc(C)c2sc3ccccc3c(=O)c12`, the TGI in the assay with CCRF-CEM leukemia was 27.6 µM; in the assay with HL-60(TB) leukemia it was 11.3 µM; in the assay with HOP-92 NSCLC, 14.1 µM; in the assay with HS 578T breast, 7.49 µM; with MALME-3M melanoma, 8.05 µM; with NCI-H460 lung, 3.88 µM. The TGI was 23.9 µM in the assay on SN12C renal, over 22.4 µM in the assay with SR leukemia, 5.5 µM with SW-620 colon and 12.4 µM with U251 CNS.

On to `O=c1[nH]c(=O)n(CCOCP(=O)(O)O)nc1Br`, for which the TGI with CCRF-CEM leukemia, in the assay with HL-60(TB) leukemia, with HOP-92 NSCLC, in the assay on HS 578T breast, in the assay on MALME-3M melanoma and in the assay with NCI-H460 lung was over 100 µM throughout. Also, the TGI with SN12C renal, in the assay with SR leukemia, in the assay on SW-620 colon and in the assay with U251 CNS was over 100 µM throughout.

For the compound `COc1ccc2c(c1)CCCc1c-2nc2ccccc2c1N`, the TGI in the assay with CCRF-CEM leukemia amounted to 32 µM; in the assay on HL-60(TB) leukemia it was 32.4 µM; with HOP-92 NSCLC, 18.9 µM; in the assay with HS 578T breast, 45.3 µM; with MALME-3M melanoma it was 27.1 µM; in the assay with NCI-H460 lung, 16.9 µM. The TGI with SN12C renal turned out to be 17.9 µM; with SR leukemia it was 6.32 µM; in the assay with SW-620 colon, 29 µM; in the assay with U251 CNS, 25.2 µM.

As for `Cc1cc(=O)n2c3c(c4c(cc13)c(CN(C)C)cc(=O)n4C)OC2`, the TGI was over 100 µM in the assay with CCRF-CEM leukemia; over 100 µM in the assay with HL-60(TB) leukemia; 97.6 µM in the assay on HOP-92 NSCLC; 41.1 µM in the assay with HS 578T breast; 30.4 µM in the assay with MALME-3M melanoma; over 100 µM in the assay with NCI-H460 lung. The TGI is over 100 µM in the assay with SN12C renal, over 100 µM in the assay with SR leukemia, over 82.3 µM with SW-620 colon and over 100 µM with U251 CNS.

With `O=CN1CCC23CC(O)CCC2C1Cc1cc(Oc2nnnn2-c2ccccc2)cc(O)c13` (stereo not given), the TGI in the assay on CCRF-CEM leukemia, with HL-60(TB) leukemia, in the assay with HOP-92 NSCLC, in the assay on HS 578T breast, in the assay with MALME-3M melanoma and in the assay on NCI-H460 lung was over 100 µM each time. In addition, the TGI in the assay on SN12C renal, in the assay with SR leukemia, with SW-620 colon and in the assay on U251 CNS was over 100 µM in each case.

As for `CCOC(=O)C12CC(C)=C(C)CC1CCCc1ccccc12` (stereo not given), the TGI was 41.6 µM in the assay with CCRF-CEM leukemia; 29.5 µM in the assay with HL-60(TB) leukemia; 38.8 µM in the assay on HOP-92 NSCLC; over 100 µM in the assay on HS 578T breast; 53.5 µM in the assay on MALME-3M melanoma; 32.7 µM in the assay on NCI-H460 lung. Moreover, the TGI was 58.3 µM with SN12C renal, 84.4 µM in the assay on SR leukemia, 51.8 µM in the assay on SW-620 colon and 39.6 µM in the assay on U251 CNS.

For `O=S(=O)(O)c1ccc2c(N=Nc3ccccc3)c(O)ccc2c1`, the TGI in the assay with CCRF-CEM leukemia, in the assay with HL-60(TB) leukemia, with HOP-92 NSCLC, in the assay with HS 578T breast, in the assay with MALME-3M melanoma and in the assay on NCI-H460 lung was over 100 µM each time. The TGI in the assay on SN12C renal, in the assay on SR leukemia, in the assay on SW-620 colon and with U251 CNS was over 100 µM in each case.

Take `O=C1CS(=O)(=O)C(c2cccc(Oc3ccccc3)c2)N1C1CC1` (stereo not given): the TGI with CCRF-CEM leukemia, in the assay with HL-60(TB) leukemia, in the assay on HOP-92 NSCLC, in the assay on HS 578T breast, in the assay with MALME-3M melanoma and with NCI-H460 lung was over 100 µM each time. Also, the TGI with SN12C renal, in the assay with SR leukemia, in the assay on SW-620 colon and with U251 CNS was over 100 µM throughout.

For the compound `N=C(N)c1ccc(N=Nc2c(O)ccc3cc4c(N=Nc5ccc(C(=N)N)cc5)c(O)ccc4cc23)cc1`, the TGI with CCRF-CEM leukemia was over 100 µM; in the assay on HL-60(TB) leukemia it was 84.6 µM; with HOP-92 NSCLC, over 100 µM; in the assay on HS 578T breast, over 100 µM; with MALME-3M melanoma it was over 100 µM; with NCI-H460 lung, over 100 µM. The TGI with SN12C renal, in the assay on SR leukemia, with SW-620 colon and with U251 CNS was over 100 µM each time.

Regarding `Cn1c(=O)ccc2c(=O)c3ccccc3oc21`, the TGI with CCRF-CEM leukemia, in the assay with HL-60(TB) leukemia, in the assay on HOP-92 NSCLC, with HS 578T breast, in the assay with MALME-3M melanoma and in the assay on NCI-H460 lung was over 100 µM in each case. The TGI in the assay on SN12C renal, with SR leukemia, with SW-620 colon and in the assay on U251 CNS was over 100 µM in each case.

Consider `Cn1cc(-c2nnc(-c3ccc(Cl)cc3)[nH]c2=O)c2ccccc21`, for which the TGI in the assay with CCRF-CEM leukemia is over 22.7 µM; in the assay on HL-60(TB) leukemia it was over 24 µM; with HOP-92 NSCLC, over 100 µM; in the assay on HS 578T breast it was over 100 µM; in the assay on MALME-3M melanoma, over 25.8 µM; in the assay with NCI-H460 lung it was over 44.1 µM. Also, the TGI with SN12C renal was over 64 µM; in the assay with SR leukemia it was over 100 µM; in the assay with SW-620 colon, over 64.6 µM; in the assay with U251 CNS, over 37.5 µM.

As for `Cc1cc2c(cc1Cl)SC(c1ccccc1O)NS2(=O)=O` (stereo not given), the TGI is 26.3 µM in the assay on CCRF-CEM leukemia; over 100 µM with HL-60(TB) leukemia; over 100 µM with HOP-92 NSCLC; over 100 µM in the assay with HS 578T breast; 61.8 µM in the assay on MALME-3M melanoma; over 100 µM in the assay on NCI-H460 lung. Also, the TGI was over 100 µM in the assay on SN12C renal, 77.3 µM with SR leukemia, 42.5 µM in the assay on SW-620 colon and over 100 µM in the assay with U251 CNS.

On to `O=C(O)CCCN=C(C1=C(O)C(=O)N(c2ccccc2)C1=O)c1ccccc1`, for which the TGI in the assay on CCRF-CEM leukemia, in the assay on HL-60(TB) leukemia, with HOP-92 NSCLC, with HS 578T breast, in the assay on MALME-3M melanoma and with NCI-H460 lung was over 100 µM throughout. Further, the TGI with SN12C renal was over 100 µM; in the assay with SR leukemia, 64.9 µM; with SW-620 colon it was over 100 µM; with U251 CNS, over 100 µM.

Values taken from PubChem BioAssay (NCI).
